# Where two headings read alike, the source gives them in different places.
# Columns and labels:
# NCI-H322M = experiment: cells; settings: Homo sapiens
# RXF 393 = experiment: cells; settings: Homo sapiens, RXF 393
# TK-10 = experiment: cells; settings: Homo sapiens, TK-10
# UO-31 [1] = test system: UO-31
# HT29 = experiment: cells; settings: Homo sapiens, HT-29
# M14 = experiment: cells; settings: Homo sapiens, M14
# CAKI-1 = experiment: cells; settings: Homo sapiens, CAKI-1
# CCRF-CEM = experiment: cells; settings: Homo sapiens
# MCF7 = experiment: cells; settings: Homo sapiens, MCF7
# A549/ATCC = experiment: cells; settings: Homo sapiens, A549
# U251 = experiment: cells; settings: Homo sapiens, U-251
# DU-145 = experiment: cells; settings: Homo sapiens, DU-145
# NCI-H226 = experiment: cells; settings: Homo sapiens, NCI-H226
# MDA-MB-435 = MDA-MB-435 (Melanoma panel)
# OVCAR-3 = experiment: cells; settings: Homo sapiens, OVCAR-3
# UO-31 [2] = experiment: cells; settings: Homo sapiens, UO-31
# SN12C = experiment: cells; settings: Homo sapiens
# EKVX = experiment: cells; settings: Homo sapiens
# UACC-62 [3] = experiment: cells; settings: Homo sapiens, UACC-62
# UACC-62 [4] = test system: UACC-62
# PC-3 = experiment: cells; settings: Homo sapiens, PC-3
# MALME-3M = experiment: cells; settings: Homo sapiens
# HCC-2998 = experiment: cells; settings: Homo sapiens, HCC 2998
# COLO 205 = experiment: cells; settings: Homo sapiens, COLO 205
# [5] = Log10 Concentration −4.0, Molar
# [6] = Log10 Concentration −5.0, Molar
# [7] = Log10 Concentration −6.0, Molar
# [8] = Log10 Concentration −7.0, Molar
# [9] = Log10 Concentration −8.0, Molar
smiles,measurement,setting,value
"CNC(=O)NC[C@H]1O[C@@H](n2cnc3c(NC(=O)Nc4ccccc4)ncnc32)C(O[Si](C)(C)C(C)(C)C)[C@H]1O[Si](C)(C)C(C)(C)C (some centres unmarked) [Compound 25, 2′,3′-Bis-O-(tert-butyldimethylsilyl)-5-deoxy-5′-[(N-methylcarbamoyl)amino]-N^6-(N-phenylcarbamoyl)adenosine]",GI50,NCI-H322M,6.86 µM
same,IC50,NCI-H322M,> 100 µM
same,GI50,RXF 393,2.14 µM
same,IC50,RXF 393,7.5 µM
same,GI50,TK-10,4.29 µM
same,IC50,TK-10,> 100 µM
same,TGI,UO-31 [1],9.56E−6 Molar
same,Percent Growth,UO-31 [1]; [5],−21%
same,Percent Growth,UO-31 [1]; [6],−2%
same,Percent Growth,UO-31 [1]; [7],84%
same,Percent Growth,UO-31 [1]; [8],97%
same,Percent Growth,UO-31 [1]; [9],87%
same,GI50,HT29,2.02 µM
same,IC50,HT29,8.91 µM
same,GI50,M14,4.33 µM
same,IC50,M14,93.8 µM
same,GI50,CAKI-1,2.7 µM
same,IC50,CAKI-1,> 100 µM
same,GI50,CCRF-CEM,3.59 µM
same,IC50,CCRF-CEM,> 100 µM
same,GI50,MCF7,2.69 µM
same,IC50,MCF7,> 100 µM
same,GI50,A549/ATCC,2.9 µM
same,IC50,A549/ATCC,> 100 µM
same,GI50,U251,2.96 µM
same,IC50,U251,> 100 µM
same,GI50,DU-145,2.59 µM
same,IC50,DU-145,18.7 µM
same,GI50,NCI-H226,3.1 µM
same,IC50,NCI-H226,> 100 µM
same,TGI,MDA-MB-435,2.91E−5 Molar
same,Percent Growth,MDA-MB-435; Log10 Concentration −4.0 Molar,−10%
same,Percent Growth,MDA-MB-435; Log10 Concentration −5.0 Molar,9%
same,Percent Growth,MDA-MB-435; Log10 Concentration −6.0 Molar,97%
same,Percent Growth,MDA-MB-435; Log10 Concentration −7.0 Molar,102%
same,Percent Growth,MDA-MB-435; Log10 Concentration −8.0 Molar,102%
same,GI50,OVCAR-3,2.6 µM
same,IC50,OVCAR-3,98.2 µM
same,GI50,UO-31 [2],2.5 µM
same,IC50,UO-31 [2],> 100 µM
same,GI50,SN12C,1.81 µM
same,IC50,SN12C,6.29 µM
same,TGI,HOP-92,5.16E−6 Molar
same,Percent Growth,HOP-92; [5],−50%
same,Percent Growth,HOP-92; [6],−25%
same,Percent Growth,HOP-92; [7],69%
same,Percent Growth,HOP-92; [8],80%
same,Percent Growth,HOP-92; [9],85%
same,GI50,EKVX,3.7 µM
same,IC50,EKVX,> 100 µM
same,TGI,SNB-19,>1.00E−4 Molar
same,Percent Growth,SNB-19; [5],7%
same,Percent Growth,SNB-19; [6],29%
same,Percent Growth,SNB-19; [7],91%
same,Percent Growth,SNB-19; [8],100%
same,Percent Growth,SNB-19; [9],97%
same,GI50,UACC-62 [3],3.98 µM
same,IC50,UACC-62 [3],> 100 µM
same,TGI,UACC-62 [4],2.36E−5 Molar
same,Percent Growth,UACC-62 [4]; [5],−39%
same,Percent Growth,UACC-62 [4]; [6],23%
same,Percent Growth,UACC-62 [4]; [7],90%
same,Percent Growth,UACC-62 [4]; [8],100%
same,Percent Growth,UACC-62 [4]; [9],102%
same,GI50,PC-3,2.69 µM
same,IC50,PC-3,> 100 µM
same,TGI,T-47D,1.03E−5 Molar
same,Percent Growth,T-47D; [5],−32%
same,Percent Growth,T-47D; [7],92%
same,Percent Growth,T-47D; [8],105%
same,Percent Growth,T-47D; [9],101%
same,GI50,MALME-3M,2.98 µM
same,IC50,MALME-3M,> 100 µM
same,GI50,HCC-2998,2.02 µM
same,IC50,HCC-2998,6.99 µM
same,GI50,COLO 205,1.59 µM
same,IC50,COLO 205,5.98 µM

# Reference: patent US20100152434A1, “Protein Kinase-binding Nucleosides and Associated Methods” (priority 2007, published 2010)
